Where a name gives a salt, the structure may show the parent alone.
Columns and labels:
Histamine H3 receptor = Histamine H3 receptor (Homo sapiens, UniProt Q9Y5N1); assay: (§1) PDSP Secondary Binding target: HRH3 - Compounds are tested at 10 uM concentration, plate are incubated at room temperature in the dark for 90 minutes. Reaction are stopped by vacuum filtration onto 0.3% polyethyleneimine soaked filter mats using Filtermate harvester. Scintillation cocktail is then melted onto microwave-dried filters on a hot plate and the radio activity is counted in Microbia counter.
Histamine H3 receptor, sequence (Q9Y5N1 whole entry): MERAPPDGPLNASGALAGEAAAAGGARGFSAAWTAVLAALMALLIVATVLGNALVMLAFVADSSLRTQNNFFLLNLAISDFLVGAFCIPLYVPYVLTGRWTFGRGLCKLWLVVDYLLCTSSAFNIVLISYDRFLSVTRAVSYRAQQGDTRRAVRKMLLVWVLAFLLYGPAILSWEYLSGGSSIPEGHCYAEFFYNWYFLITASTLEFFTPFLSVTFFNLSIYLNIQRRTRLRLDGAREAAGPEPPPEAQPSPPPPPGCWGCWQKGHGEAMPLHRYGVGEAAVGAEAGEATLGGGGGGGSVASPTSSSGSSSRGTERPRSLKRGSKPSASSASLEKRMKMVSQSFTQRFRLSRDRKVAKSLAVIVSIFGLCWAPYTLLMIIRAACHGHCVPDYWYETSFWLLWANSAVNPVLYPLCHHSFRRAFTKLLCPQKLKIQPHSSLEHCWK

[1] = biological target: T1, Muscarinic acetylcholine receptor M2 (Homo sapiens, UniProt P08172); assay: as §1, with “CHRM2” for “HRH3”
T1 sequence (P08172 whole entry): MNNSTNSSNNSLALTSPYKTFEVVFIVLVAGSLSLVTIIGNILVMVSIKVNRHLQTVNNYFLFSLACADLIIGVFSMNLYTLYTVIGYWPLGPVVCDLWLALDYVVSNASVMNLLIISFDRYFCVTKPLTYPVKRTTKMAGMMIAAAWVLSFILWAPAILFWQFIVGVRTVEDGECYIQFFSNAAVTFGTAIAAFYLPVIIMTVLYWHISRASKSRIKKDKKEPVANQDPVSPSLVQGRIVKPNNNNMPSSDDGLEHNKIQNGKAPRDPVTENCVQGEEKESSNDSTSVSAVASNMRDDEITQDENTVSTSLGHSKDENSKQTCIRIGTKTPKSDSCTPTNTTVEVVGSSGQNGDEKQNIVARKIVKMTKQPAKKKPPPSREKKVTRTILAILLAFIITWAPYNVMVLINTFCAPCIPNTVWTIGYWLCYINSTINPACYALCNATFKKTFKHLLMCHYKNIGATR

[2] = biological target: Beta-2 adrenergic receptor (Homo sapiens, UniProt P07550); assay: as §1, with “ADRB2” for “HRH3”
Beta-2 adrenergic receptor, sequence (P07550 whole entry): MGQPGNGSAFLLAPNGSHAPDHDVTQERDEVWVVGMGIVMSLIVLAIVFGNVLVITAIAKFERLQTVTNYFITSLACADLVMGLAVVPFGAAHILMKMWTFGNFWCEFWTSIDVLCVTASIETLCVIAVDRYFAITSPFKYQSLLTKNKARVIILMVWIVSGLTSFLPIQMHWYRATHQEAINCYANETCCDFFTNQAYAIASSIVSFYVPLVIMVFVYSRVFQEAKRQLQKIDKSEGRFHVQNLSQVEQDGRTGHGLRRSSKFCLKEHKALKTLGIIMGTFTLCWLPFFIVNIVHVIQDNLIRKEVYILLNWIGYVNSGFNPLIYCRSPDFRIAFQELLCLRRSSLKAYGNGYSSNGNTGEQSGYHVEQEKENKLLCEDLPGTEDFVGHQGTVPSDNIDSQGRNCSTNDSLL

[3] = biological target: Kappa-type opioid receptor (Homo sapiens, UniProt P41145); assay: as §1, with “OPRK1” for “HRH3”
Kappa-type opioid receptor, sequence (P41145 whole entry): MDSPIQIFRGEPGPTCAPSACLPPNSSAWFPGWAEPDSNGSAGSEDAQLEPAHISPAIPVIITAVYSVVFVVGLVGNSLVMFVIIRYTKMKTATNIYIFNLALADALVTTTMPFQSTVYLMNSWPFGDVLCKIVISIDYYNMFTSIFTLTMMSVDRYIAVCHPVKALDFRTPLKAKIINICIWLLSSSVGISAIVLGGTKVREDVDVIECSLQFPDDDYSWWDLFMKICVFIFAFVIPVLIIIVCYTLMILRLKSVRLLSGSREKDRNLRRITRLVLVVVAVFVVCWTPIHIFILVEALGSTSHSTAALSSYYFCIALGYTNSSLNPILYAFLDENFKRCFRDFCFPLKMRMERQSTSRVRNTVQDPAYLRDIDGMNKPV

Histamine H4 receptor = Histamine H4 receptor (Homo sapiens, UniProt Q9H3N8); assay: as §1, with “HRH4” for “HRH3”
Histamine H4 receptor, sequence (Q9H3N8 whole entry): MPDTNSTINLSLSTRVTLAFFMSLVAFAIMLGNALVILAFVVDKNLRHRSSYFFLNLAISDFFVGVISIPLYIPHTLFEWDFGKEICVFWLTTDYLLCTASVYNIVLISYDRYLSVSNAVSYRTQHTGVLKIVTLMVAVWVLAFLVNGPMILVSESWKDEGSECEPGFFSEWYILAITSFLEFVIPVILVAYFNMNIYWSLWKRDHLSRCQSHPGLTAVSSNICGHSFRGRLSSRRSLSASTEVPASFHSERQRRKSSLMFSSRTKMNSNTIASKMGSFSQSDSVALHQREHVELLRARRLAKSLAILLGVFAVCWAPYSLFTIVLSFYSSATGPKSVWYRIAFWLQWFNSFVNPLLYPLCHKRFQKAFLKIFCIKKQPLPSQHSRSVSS

[4] = biological target: T2, Muscarinic acetylcholine receptor M4 (Homo sapiens, UniProt P08173); assay: as §1, with “CHRM4” for “HRH3”
T2 sequence (P08173 whole entry): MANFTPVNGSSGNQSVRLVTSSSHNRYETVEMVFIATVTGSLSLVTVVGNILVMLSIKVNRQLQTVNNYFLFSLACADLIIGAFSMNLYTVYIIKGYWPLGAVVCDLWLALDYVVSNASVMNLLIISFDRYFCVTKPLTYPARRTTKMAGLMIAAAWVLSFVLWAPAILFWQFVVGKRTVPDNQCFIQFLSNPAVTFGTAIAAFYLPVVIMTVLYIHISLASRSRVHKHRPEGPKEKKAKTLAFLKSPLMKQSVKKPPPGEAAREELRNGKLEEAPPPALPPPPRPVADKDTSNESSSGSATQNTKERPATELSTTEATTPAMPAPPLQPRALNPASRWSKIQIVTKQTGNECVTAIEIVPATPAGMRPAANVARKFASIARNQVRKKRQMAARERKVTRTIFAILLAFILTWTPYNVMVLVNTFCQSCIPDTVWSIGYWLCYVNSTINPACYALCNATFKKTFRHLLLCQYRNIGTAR

[5] = biological target: Beta-3 adrenergic receptor (Homo sapiens, UniProt P13945); assay: as §1, with “ADRB3” for “HRH3”
Beta-3 adrenergic receptor, sequence (P13945 whole entry): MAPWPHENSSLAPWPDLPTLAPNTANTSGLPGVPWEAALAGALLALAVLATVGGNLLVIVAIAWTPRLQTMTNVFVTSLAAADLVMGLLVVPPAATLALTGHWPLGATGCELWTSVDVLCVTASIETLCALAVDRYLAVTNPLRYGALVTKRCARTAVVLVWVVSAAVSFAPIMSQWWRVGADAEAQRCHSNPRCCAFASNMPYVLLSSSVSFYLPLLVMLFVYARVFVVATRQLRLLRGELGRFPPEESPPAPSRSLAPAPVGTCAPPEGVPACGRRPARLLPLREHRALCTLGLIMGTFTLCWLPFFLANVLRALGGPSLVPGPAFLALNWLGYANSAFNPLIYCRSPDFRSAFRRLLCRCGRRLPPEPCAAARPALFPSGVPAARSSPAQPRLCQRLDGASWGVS

Histamine H2 receptor = Histamine H2 receptor (Homo sapiens, UniProt P25021); assay: as §1, with “HRH2” for “HRH3”
Histamine H2 receptor, sequence (P25021 whole entry): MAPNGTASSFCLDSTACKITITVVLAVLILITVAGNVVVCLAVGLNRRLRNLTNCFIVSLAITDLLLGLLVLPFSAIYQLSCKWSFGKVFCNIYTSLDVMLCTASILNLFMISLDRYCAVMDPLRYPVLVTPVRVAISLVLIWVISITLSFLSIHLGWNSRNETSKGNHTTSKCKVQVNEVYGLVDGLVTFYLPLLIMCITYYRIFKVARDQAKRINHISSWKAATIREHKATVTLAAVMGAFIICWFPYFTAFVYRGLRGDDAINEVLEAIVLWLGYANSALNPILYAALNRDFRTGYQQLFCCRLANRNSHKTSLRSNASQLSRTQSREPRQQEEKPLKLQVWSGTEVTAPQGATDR

[6] = biological target: Beta-1 adrenergic receptor (Homo sapiens, UniProt P08588); assay: as §1, with “ADRB1” for “HRH3”
Beta-1 adrenergic receptor, sequence (P08588 whole entry): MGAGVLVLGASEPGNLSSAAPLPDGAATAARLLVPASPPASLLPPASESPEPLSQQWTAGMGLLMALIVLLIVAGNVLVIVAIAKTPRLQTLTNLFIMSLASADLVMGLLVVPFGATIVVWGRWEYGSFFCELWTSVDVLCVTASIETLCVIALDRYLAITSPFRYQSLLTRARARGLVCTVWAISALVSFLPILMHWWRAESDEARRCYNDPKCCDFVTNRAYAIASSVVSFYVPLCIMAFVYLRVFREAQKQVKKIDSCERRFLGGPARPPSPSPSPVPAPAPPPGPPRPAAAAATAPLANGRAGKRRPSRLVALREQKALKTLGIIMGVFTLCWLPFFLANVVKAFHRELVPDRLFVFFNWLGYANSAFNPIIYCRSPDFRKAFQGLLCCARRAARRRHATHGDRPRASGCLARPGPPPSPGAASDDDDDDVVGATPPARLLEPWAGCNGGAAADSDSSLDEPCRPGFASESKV

[7] = biological target: T3, 5-hydroxytryptamine receptor 3A (Homo sapiens, UniProt P46098); assay: as §1, with “HTR3A” for “HRH3”
T3 sequence (P46098 whole entry): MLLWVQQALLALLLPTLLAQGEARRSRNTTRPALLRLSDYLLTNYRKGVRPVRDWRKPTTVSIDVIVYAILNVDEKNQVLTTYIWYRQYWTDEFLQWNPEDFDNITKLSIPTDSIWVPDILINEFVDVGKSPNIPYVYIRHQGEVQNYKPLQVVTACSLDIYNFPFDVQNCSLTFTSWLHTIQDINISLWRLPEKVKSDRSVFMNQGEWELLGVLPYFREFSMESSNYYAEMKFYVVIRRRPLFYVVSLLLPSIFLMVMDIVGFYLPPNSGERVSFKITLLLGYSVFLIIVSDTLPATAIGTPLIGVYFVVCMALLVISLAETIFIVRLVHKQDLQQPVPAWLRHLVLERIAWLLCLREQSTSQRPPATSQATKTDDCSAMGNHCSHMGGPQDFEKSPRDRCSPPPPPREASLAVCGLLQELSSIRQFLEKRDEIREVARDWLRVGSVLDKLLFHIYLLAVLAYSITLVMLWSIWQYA

[8] = biological target: Delta-type opioid receptor (Homo sapiens, UniProt P41143); assay: as §1, with “OPRD1” for “HRH3”
Delta-type opioid receptor, sequence (P41143 whole entry): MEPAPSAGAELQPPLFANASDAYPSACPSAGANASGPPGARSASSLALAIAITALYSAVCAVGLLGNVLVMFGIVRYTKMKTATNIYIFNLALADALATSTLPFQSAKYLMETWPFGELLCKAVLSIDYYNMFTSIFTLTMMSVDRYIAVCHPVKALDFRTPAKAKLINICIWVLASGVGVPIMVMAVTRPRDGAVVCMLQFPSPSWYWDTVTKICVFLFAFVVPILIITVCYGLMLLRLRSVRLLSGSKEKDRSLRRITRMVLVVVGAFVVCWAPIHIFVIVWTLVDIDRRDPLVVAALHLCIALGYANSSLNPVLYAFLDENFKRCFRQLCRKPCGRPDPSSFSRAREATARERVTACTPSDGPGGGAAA

CN1CCN(c2ccc(Nc3c4ccccc4nc4ccccc34)cc2)CC1
Ki (Histamine H3 receptor): 82.4 nM
Ki [1]: 204 nM
Ki [2]: 810 nM

Cc1nc2sccn2c(=O)c1CCN1CCC(=C(c2ccc(F)cc2)c2ccc(F)cc2)CC1 [RITANSERIN]
Ki [3]: 1450 nM

S=C(NCCCc1c[nH]cn1)NCCCN(Cc1ccc(Cl)c(Cl)c1)c1ccc(Br)cn1
Ki [3]: 1110 nM
Ki (Histamine H3 receptor): 104 nM

COc1cc(-n2cnc3cc(-c4ccc(Cl)cc4)sc3c2=O)ccc1OCCN1CCCC1
Ki (Histamine H4 receptor): > 10 µM
Ki [4]: 1700 nM

Cc1c(P(=S)(c2ccccc2)c2ccccc2)n2ccccc2[n+]1C/C=C/c1ccccc1
Ki [3]: 118 nM
Ki [5]: 2.05 µM
Ki [1]: 805 nM
Ki [4]: 854 nM
Ki (Histamine H2 receptor): 2960 nM

N#Cc1ccc2[nH]cc(CCCCN3CCN(c4ccc5oc(C(N)=O)cc5c4)CC3)c2c1 [VILAZODONE HYDROCHLORIDE]
Ki [2]: 2490 nM

Cc1ccc2c(c1)c1c(n2CCc2ccc(C)nc2)CCN(C)C1 [LATREPIRDINE]
Ki (Histamine H2 receptor): 215 nM

CN1CCCC(n2nc(Cc3ccc(Cl)cc3)c3ccccc3c2=O)CC1 (stereo not given) [AZELASTINE HYDROCHLORIDE]
Ki [5]: > 10 µM

CCc1ccc(OCc2ccccc2C(=O)Nc2ccc3nc(C)cc(N)c3c2)cc1
Ki [5]: 6.31 µM
Ki [4]: 1960 nM

CN(C)C(=O)N[C@H]1CC[C@H](CCN2CCN(c3cccc(Cl)c3Cl)CC2)CC1 [CARIPRAZINE HYDROCHLORIDE]
Ki [4]: 779 nM
Ki [6]: 222 nM

O=S1(=O)c2cccc3cccc(c23)N1CCCN1CCN(c2ccc(F)cc2)CC1 [FANANSERIN]
Ki [3]: 2870 nM

COc1ccc(NC(=O)c2ccc(-c3ccc(-c4noc(C)n4)cc3C)cc2)cc1OCCN(C)C
Ki (Histamine H3 receptor): 709 nM
Ki [1]: 641 nM

O=c1ccc2ccc(OCCCCN3CCN(c4cccc5sccc45)CC3)cc2[nH]1 [BREXPIPRAZOLE]
Ki (Histamine H3 receptor): 2610 nM
Ki [2]: 969 nM
Ki [7]: 1530 nM

COC(=O)C1=C(C)NC(C)=C(C(=O)OCCCN2CCC(c3ccccc3)(c3ccccc3)CC2)[C@H]1c1cccc([N+](=O)[O-])c1 [NIGULDIPINE]
Ki [3]: 347 nM
Ki (Histamine H3 receptor): 2140 nM
Ki [8]: 399 nM

C[C@H](Cc1cc2c(c(C(N)=O)c1)N(CCCO)CC2)NCCOc1ccccc1OCC(F)(F)F [SILODOSIN]
Ki [2]: 32.8 nM

CCCCCNC(=N)N/N=C/c1c[nH]c2ccc(OC)cc12 [TEGASEROD MALEATE]
Ki [5]: 4.94 µM
Ki [7]: 5840 nM

Clc1cccc(COc2cncc(N3CCNCC3)n2)c1
Ki [4]: 444 nM
Ki [6]: 2030 nM
Ki [7]: 63.7 nM
